Several values for one entry are separate records, joined by “and”; a condition that tells them apart may be missing. Equal entries are not always repeated.
Key:
[1] = test system: HPPD variant APESV V208 (SEQ ID NO: 15); assay: coupled HGO assay; assay type: biochemical, Apera spica-venti
[2] = test system: transgenic tobacco plants expressing mutant HPPD SEQ ID 20; assay: spray test, herbicidal damage scoring; assay type: in vivo; settings: several events expressing SEQ ID 20; 800 g/ha (Table 3.3)
Description: Avena sativa HPPD or orthologues and variants thereof, for example SEQ IDs 1-63 and 122-127, were expressed in transgenic tobacco. DNA sequences that encode these polypeptides (optimized for tobacco or, optionally, codon optimized according to a target crop such as soybean) were prepared synthetically. Each sequence was designed to include a 5′ fusion with TMV omega 5′ leader sequence such that they are flanked at the 5′ end with XhoI and at the 3′ end with KpnI to facilitate direct cloning into a suitable binary vector for Agrobacterium-based plant transformation. […]
Plants are assessed for damage and scored at, for example, 7 and 14 days after treatment (DAT). […]
Plants of events showing the least damage are grown to flowering, then bagged and allowed to self. […] Single copy events amongst the Ti plant lines are identified by their 3:1 segregation ratio (with respect to kanamycin and/or herbicide) and by quantitative RT-PCR. […] HPPD expression levels were monitored by Western analysis.
The tobacco lines expressing SEQ ID 122 were now compared to a population of tobacco which express SEQ ID 20. The plants were sprayed with 800g/ha Bicyclopyrone and scored for damage.

[3] = test system: transgenic tobacco plants expressing mutant HPPD SEQ ID NO: 125; assay: spray test, herbicidal damage scoring; assay type: in vivo

Row | Compound | IC50 [1] [nM] | tolerance in comparison to events expressing SEQ ID 122 [2] | tolerance ([3]; SEQ ID 125 plants, 100 g/ha (Table 3.4)) | herbicidal damage scoring, Herbicide C (200 g/ha) ([3]; Table 3.4, 14 days after treatment, SEQ ID 125, 100=complete death, 0=no damage, one value per event)
1 | bicyclopyrone | 1000 | increased tolerance | – | –
2 | COc1ccc(-n2nc(C)cc(C(=O)C3C(=O)CCCC3=O)c2=O)cc1OC [Herbicide C, dioxopyritrione] | – | – | display tolerance | 60 and 80 and 75 and 85
